Data set [1] addresses T1, NaV1.5 (Homo sapiens, UniProt Q14524).
T1 construct: permanently transfected with an expression vector containing the full-length cDNA coding for the desired human sodium channel α-subunit; expressed in transfected cells; host or cells: HEK-293
As to the kind of experiment: Patch voltage clamp electrophysiology assay (EP), NaV1.5. As to conditions: HEK-293 cells stably expressing NaV1.5 with β1 subunit, whole-cell patch clamp, membrane potential −60 mV (inactivated state). In kind it is cell-based. Summed up:
(§1)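 Percent block is the drop in sodium current after compound wash-on, measured by a test pulse following 20 ms at −150 mV from a −60 mV inactivating holding potential.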

Data set [2] addresses T2, human NaV1.7 (Homo sapiens, UniProt Q15858).
T2 construct: permanently transfected with an expression vector containing the full-length cDNA coding for the desired human sodium channel α-subunit; expressed in transfected cells; host or cells: HEK-293
As to the kind of experiment: Patch voltage clamp electrophysiology assay (EP), NaV1.7. As to conditions: HEK-293 cells stably expressing NaV1.7 with β1 subunit; whole-cell patch clamp, membrane potential −60 mV (inactivated state). The format is cell-based. The procedure, abridged:
as §1

Data set [3] concerns the target T3, hNav1.7 (Homo sapiens, UniProt Q15858).
T3 construct: expressed in transfected cells
The data set can be described thus: Tritiated compound binding (LBA) to membranes from cells expressing hNav1.7 and the β1 subunit, competitive binding. As to conditions: competitive binding vs 100 pM [3H]compound, 18 h, room temperature, membranes with hNav1.7 and β1 subunit. Summed up:
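Competitive displacement of 100 pM [3H]compound (tritiated methyl analogue of formula (I)) from hNav1.7/β1 membranes, 18 h at room temperature in NaCl/Tris pH 7.4 buffer containing 0.01% BSA. 1 μM unlabeled compound set non-specific binding. Bound label quantified by scintillation after filtration; 4-parameter fit gave IC50.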

Setting [4] is: human, HEK-293 cells stably expressing human NaV1.5 with β1 subunit, pH 7.4.

Each structure is given as a SMILES string. Like-named read-outs stand apart in the source and are kept apart here.

T3 sequence (Q15858 1-1977 isoform Q15858-3): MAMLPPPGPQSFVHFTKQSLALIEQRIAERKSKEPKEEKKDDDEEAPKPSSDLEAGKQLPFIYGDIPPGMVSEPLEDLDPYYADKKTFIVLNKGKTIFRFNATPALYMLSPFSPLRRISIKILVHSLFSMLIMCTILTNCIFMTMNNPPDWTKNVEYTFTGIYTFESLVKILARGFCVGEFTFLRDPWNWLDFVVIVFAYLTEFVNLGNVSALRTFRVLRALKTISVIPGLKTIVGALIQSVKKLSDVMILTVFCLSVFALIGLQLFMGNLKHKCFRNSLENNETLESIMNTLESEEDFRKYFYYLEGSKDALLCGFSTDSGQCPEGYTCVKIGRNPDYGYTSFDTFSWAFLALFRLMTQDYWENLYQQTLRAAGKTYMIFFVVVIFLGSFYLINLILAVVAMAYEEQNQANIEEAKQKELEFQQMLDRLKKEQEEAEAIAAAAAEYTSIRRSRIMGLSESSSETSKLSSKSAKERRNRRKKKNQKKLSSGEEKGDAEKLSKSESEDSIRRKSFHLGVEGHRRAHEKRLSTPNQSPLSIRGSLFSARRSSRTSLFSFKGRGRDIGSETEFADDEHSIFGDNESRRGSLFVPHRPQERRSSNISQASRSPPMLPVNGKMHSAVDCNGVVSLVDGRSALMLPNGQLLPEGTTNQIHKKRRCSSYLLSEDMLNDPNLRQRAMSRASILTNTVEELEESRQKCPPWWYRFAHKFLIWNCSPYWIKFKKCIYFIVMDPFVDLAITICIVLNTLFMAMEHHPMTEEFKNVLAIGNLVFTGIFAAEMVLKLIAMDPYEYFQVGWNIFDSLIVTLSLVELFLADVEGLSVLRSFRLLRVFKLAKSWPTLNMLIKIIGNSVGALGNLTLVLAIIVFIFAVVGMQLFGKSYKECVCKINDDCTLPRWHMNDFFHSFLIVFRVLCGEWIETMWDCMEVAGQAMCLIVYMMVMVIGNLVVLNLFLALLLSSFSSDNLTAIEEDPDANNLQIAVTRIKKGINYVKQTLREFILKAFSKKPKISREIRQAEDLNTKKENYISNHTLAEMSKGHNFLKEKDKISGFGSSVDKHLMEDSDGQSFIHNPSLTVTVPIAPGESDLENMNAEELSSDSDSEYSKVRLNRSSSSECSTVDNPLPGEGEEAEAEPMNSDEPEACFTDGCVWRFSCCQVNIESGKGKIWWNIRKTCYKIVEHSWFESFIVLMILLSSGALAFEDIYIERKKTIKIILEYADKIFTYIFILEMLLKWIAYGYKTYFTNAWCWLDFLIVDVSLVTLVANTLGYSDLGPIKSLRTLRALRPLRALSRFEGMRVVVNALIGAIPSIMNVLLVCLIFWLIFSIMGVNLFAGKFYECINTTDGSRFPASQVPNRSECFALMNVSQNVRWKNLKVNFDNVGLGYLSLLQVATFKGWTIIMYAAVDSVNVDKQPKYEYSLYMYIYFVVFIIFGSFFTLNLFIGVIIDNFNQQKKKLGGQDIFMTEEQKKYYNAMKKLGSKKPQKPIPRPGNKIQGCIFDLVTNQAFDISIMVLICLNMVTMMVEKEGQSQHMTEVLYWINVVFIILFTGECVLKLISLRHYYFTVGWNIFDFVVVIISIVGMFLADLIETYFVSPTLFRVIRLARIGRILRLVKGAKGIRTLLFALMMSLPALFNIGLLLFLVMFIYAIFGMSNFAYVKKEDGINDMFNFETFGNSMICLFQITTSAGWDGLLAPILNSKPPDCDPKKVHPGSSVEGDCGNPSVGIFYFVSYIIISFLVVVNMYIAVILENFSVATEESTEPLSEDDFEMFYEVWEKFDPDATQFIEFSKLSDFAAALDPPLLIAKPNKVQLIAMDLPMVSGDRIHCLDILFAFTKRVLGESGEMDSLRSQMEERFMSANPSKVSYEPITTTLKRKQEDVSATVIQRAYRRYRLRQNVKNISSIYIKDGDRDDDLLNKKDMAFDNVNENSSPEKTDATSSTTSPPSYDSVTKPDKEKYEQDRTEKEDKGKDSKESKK
T3 sequence (Q07699 19-218 partner): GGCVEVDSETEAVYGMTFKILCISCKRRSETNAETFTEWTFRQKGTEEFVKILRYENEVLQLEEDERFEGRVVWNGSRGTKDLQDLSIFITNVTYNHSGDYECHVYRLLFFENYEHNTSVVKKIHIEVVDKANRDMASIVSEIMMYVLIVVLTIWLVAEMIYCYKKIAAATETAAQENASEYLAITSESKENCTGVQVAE
T2 sequence (Q15858 1-1977 isoform Q15858-3): as the sequence (Q15858 1-1977 isoform Q15858-3) above
T2 sequence (Q07699 19-218 partner): as the sequence (Q07699 19-218 partner) above
T1 sequence (Q14524 whole entry): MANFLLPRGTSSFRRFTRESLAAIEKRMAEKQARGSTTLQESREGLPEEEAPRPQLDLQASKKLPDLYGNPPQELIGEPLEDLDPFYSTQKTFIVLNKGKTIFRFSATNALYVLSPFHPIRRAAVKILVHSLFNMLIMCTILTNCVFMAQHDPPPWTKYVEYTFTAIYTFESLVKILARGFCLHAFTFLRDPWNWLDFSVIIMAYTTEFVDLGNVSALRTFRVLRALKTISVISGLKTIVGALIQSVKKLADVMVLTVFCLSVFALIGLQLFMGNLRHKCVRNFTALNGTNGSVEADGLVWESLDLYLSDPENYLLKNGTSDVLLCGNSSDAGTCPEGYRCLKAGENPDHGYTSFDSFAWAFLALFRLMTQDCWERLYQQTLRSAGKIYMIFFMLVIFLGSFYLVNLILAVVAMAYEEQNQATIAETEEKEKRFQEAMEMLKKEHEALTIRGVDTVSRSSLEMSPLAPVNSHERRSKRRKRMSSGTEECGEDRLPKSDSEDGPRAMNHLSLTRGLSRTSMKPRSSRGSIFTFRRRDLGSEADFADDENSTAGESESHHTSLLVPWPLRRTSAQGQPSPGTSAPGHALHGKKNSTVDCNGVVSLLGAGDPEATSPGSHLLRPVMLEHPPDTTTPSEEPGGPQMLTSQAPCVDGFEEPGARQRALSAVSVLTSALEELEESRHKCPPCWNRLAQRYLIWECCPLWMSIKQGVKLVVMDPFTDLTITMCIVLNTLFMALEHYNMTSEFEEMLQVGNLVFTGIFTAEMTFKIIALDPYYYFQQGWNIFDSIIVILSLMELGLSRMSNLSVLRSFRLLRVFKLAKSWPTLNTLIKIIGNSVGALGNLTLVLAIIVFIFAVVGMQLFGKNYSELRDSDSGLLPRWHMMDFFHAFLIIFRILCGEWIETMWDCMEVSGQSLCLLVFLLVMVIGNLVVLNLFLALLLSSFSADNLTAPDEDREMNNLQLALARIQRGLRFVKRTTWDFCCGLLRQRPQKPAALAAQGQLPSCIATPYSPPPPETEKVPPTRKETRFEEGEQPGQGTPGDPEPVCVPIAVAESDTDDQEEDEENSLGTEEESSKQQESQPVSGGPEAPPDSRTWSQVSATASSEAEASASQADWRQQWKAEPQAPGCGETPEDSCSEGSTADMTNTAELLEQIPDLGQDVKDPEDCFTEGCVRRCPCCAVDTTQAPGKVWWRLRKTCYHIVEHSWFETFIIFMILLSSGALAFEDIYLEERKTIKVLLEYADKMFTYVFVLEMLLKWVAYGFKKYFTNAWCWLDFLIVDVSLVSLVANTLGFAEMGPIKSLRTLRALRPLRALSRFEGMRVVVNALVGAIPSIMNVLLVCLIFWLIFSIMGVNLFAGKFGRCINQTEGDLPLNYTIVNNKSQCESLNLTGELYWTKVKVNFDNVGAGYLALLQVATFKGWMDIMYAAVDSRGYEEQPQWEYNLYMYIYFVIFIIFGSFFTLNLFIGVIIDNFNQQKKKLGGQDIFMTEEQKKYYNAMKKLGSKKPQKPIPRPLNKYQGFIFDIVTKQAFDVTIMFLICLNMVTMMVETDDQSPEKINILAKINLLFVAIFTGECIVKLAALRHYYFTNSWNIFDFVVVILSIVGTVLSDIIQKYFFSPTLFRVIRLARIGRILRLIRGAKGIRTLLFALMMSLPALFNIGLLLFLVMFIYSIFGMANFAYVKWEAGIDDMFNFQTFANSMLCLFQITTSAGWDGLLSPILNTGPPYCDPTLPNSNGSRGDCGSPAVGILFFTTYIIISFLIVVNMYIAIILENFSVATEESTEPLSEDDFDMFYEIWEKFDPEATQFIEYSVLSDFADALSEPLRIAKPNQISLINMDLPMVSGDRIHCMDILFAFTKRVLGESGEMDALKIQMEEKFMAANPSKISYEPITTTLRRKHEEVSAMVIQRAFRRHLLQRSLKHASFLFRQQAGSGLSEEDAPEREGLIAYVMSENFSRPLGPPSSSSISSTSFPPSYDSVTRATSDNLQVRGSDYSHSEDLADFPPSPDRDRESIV

With `O=C(O)[C@@H]1C[C@@H](F)CN1C(=O)c1cc(C2CC2)c(OCC2CCN(Cc3c(Cl)cccc3Cl)CC2)cc1F` [Example 222, (2S,4R)-1-(5-cyclopropyl-4-((1-(2,6-dichlorobenzyl)piperidin-4-yl)methoxy)-2-fluorobenzoyl)-4-fluoropyrrolidine-2-carboxylic acid], the IC50 in data set [1] (setting [4]) is no less than 30000 nM; in data set [2] it was 210 nM; in data set [3] it was 13 nM.

On to `O=C(NC(C(=O)O)C(F)(F)F)c1cc(C2CC2)c(OCC23CC4CC(CC(C4)C2)C3)cc1F` (stereo not drawn) [Example 223, 2-(4-(adamantan-1-ylmethoxy)-5-cyclopropyl-2-fluorobenzamido)-3,3,3-trifluoropropanoic acid], for which the IC50 in data set [1] (read-out: Nav1.5) came out at 3900 nM; in data set [2], 2900 nM; in data set [3], 910 nM.

For `C[C@H]1OCN(C(=O)c2cc(C3CC3)c(OCC3CCN(Cc4c(Cl)cccc4Cl)CC3)cc2F)[C@@H]1C(=O)O` [Example 224, (4S,5R)-3-(5-cyclopropyl-4-((1-(2,6-dichlorobenzyl)piperidin-4-yl)methoxy)-2-fluorobenzoyl)-5-methyloxazolidine-4-carboxylic acid], the IC50 in data set [1] (read-out: Nav1.5) was 22000 nM; in data set [2], 100 nM; in data set [3] it was 14 nM.

As to `C[C@H]1OCN(C(=O)c2cc(C3CC3)c(OCC3CCN(C(c4cc(Cl)cc(Cl)c4)C(F)(F)F)CC3)cc2F)[C@@H]1C(=O)O` (stereo partly drawn) [Example 226, (4S,5R)-3-(5-cyclopropyl-4-((1-(1-(3,5-dichlorophenyl)-2,2,2-trifluoroethyl)-piperidin-4-yl)methoxy)-2-fluorobenzoyl)-5-methyloxazolidine-4-carboxylic acid], the values for the IC50 in data set [1] (read-out: Nav1.5), in data set [2] and in data set [3] were 6100 nM, 130 nM and 12 nM, respectively.

As for `C[C@H]1OCN(C(=O)c2cc(C3CC3)c(OCC3CCN(Cc4cc(C(F)(F)F)cc(Cl)c4F)CC3)cc2F)[C@@H]1C(=O)O` [Example 227, (4S,5R)-3-(4-((1-(3-chloro-2-fluoro-5-(trifluoromethyl)benzyl)piperidin-4-yl)methoxy)-5-cyclopropyl-2-fluorobenzoyl)-5-methyloxazolidine-4-carboxylic acid], the IC50 was 16000 nM in data set [1] (read-out: Nav1.5), 65 nM in data set [2] and 29 nM in data set [3].

Take `C[C@H]1OCN(C(=O)c2cc(C3CC3)c(OCC3CCN(Cc4cc(C(F)(F)F)ccc4Cl)CC3)cc2F)[C@@H]1C(=O)O` [Example 228, (4S,5R)-3-(4-((1-(2-chloro-5-(trifluoromethyl)benzyl)piperidin-4-yl)methoxy)-5-cyclopropyl-2-fluorobenzoyl)-5-methyloxazolidine-4-carboxylic acid]: the IC50 is 25000 nM in data set [1] (read-out: Nav1.5), 87 nM in data set [2] and 17 nM in data set [3].

With `C[C@H]1OCN(C(=O)c2cc(C3CC3)c(OCC3(C)CN([C@H](c4ccccc4)c4cc(Cl)cc(Cl)c4)C3)cc2F)[C@@H]1C(=O)O` [Example 229, (4S,5R)-3-(5-cyclopropyl-4-((1-((R)-(3,5-dichlorophenyl)(phenyl)methyl)-3-methylazetidin-3-yl)methoxy)-2-fluorobenzoyl)-5-methyloxazolidine-4-carboxylic acid], the IC50 in data set [1] (setting [4]) was no less than 30000 nM; in data set [2], 270 nM; in data set [3] it was 6.9 nM.

Regarding `C[C@H]1[C@H](O)CN(C(=O)c2cc(C3CC3)c(OCC34CC5CC(CC(C5)C3)C4)cc2F)[C@@H]1C(=O)O` [Example 230, (2S, 3R, 4S)-1-(4-(adamantan-1-ylmethoxy)-5-cyclopropyl-2-fluorobenzoyl)-4-hydroxy-3-methylpyrrolidine-2-carboxylic acid], the IC50 is 11000 nM in data set [1] (read-out: Nav1.5), 32 nM in data set [2] and 21 nM in data set [3].

For the compound `C[C@@H]1[C@H](O)CN(C(=O)c2cc(C3CC3)c(OCC34CC5CC(CC(C5)C3)C4)cc2F)[C@@H]1C(=O)O` [Example 231, (2S,3S,4S)-1-(4-(adamantan-1-ylmethoxy)-5-cyclopropyl-2-fluorobenzoyl)-4-hydroxy-3-methylpyrrolidine-2-carboxylic acid], the IC50 in data set [1] (read-out: Nav1.5) stood at 15000 nM; in data set [2], 360 nM; in data set [3], 290 nM.

The record behind these values is patent publication US10125098B2, “Therapeutic compounds and methods of use thereof” (GENENTECH, INC., priority 2014, dated 2018).
